Patent US20170210751A1, “PRMT5 INHIBITORS AND USES THEREOF” (Epizyme, Inc., priority 2014, published 2017)

Columns and labels:
[1] = test system: Symmetric di-Methyl Arginine in Z-138 cells; test: Z-138 Methylation Assay (In Cell Western for symmetric di-methyl arginine); type: cell-based; conditions: Homo sapiens, 96 hours incubation, symmetric di-methyl arginine normalised to DNA content, read-out: ICW EC50
Source text: Z-138 suspension cells were purchased from ATCC (American Type Culture Collection, Manassas, Va.). RPMI/Glutamax medium, penicillin-streptomycin, heat inactivated fetal bovine serum, and D-PBS were purchased from Life Technologies, Grand Island, N.Y., USA. Odyssey blocking buffer, 800CW goat anti-rabbit IgG (H+L) antibody, and Licor Odyssey infrared scanner were purchased from Licor Biosciences, Lincoln, Nebr., USA. Symmetric di-methyl arginine antibody was purchased from EMD Millipore, Billerica, Mass., USA. 16% Paraformaldehyde was purchased from Electron Microscopy Sciences, Hatfield, Pa., USA.
Z-138 suspension cells were maintained in growth medium (RPMI 1640 supplemented with 10% v/v heat inactivated fetal bovine serum and 100 units/mL penicillin-streptomycin) and cultured at 37° C. under 5% CO2.
Cell Treatment, In Cell Western (ICW) for detection of Symmetric di-Methyl Arginine and DNA content.
Z-138 cells were seeded in assay medium at a concentration of 50,000 cells per mL to a 384-well cell culture plate with 50 μL per well. Compound (100 nL) from 384 well source plates was added directly to 384 well cell plate. Plates were incubated at 37° C., 5% CO2 for 96 hours. After four days of incubation, 40 μL of cells from incubated plates were added to poly-D-lysine coated 384 well culture plates (BD Biosciences 356697). Plates were incubated at room temperature for 30 minutes then incubated at 37° C., 5% CO2 for 5 hours. After the incubation, 40 μL per well of 8% paraformaldehyde in PBS (16% paraformaldahyde was diluted to 8% in PBS) was added to each plate and incubated for 30 minutes. Plates were transferred to a Biotek 405 plate washer and washed 5 times with 100 μL per well of wash buffer (IX PBS with 0.1% Triton X-100 (v/v)). Next […] well of Odyssey blocking buffer were added to each plate and incubated 1 hour at room temperature. Blocking buffer was removed and 20 μL per well of primary antibody was added (symmetric di-methyl arginine diluted 1:100 in Odyssey buffer with 0.1% Tween 20 (v/v)) and plates were incubated overnight (16 hours) at 4° C. Plates were washed 5 times with 100 μL per well of wash buffer. Next 20 μL per well of secondary antibody was added (1:200 800CW goat anti-rabbit IgG (H+L) antibody, 1:1000 DRAQ5 (Biostatus limited) in Odyssey buffer with 0.1% Tween 20 (v/v)) and incubated for 1 hour at room temperature. The plates were washed 5 times with 100 μL per well wash buffer then 1 time with 100 μL per well of water. Plates were allowed to dry at room temperature then imaged on the Licor Odyssey machine which measures integrated intensity at 700 nm and 800 nm wavelengths. Both 700 and 800 channels were scanned.
First, the ratio for each well was determined by:
Each plate included fourteen control wells of DMSO only treatment (minimum inhibition) as well as fourteen control wells for maximum inhibition treated with 3 μM of a reference compound (Background wells). The average of the ratio values for each control type was calculated and used to determine the percent inhibition for each test well in the plate. Reference compound was serially diluted three-fold in DMSO for a total of nine test concentrations, beginning at 3 μM. Percent inhibition was determined and IC50 curves were generated using triplicate wells per concentration of compound.

Z-138 cell line = test: Z-138 Proliferation Assay (Cell Titer Glo); type: cell-based; conditions: Homo sapiens, 120 h; Z-138 cells, 5 days incubation, ATP (Cell Titer Glo)
Outline: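 Z-138 cells in RPMI with 10% FBS exposed 5 days at 37 °C to nine-point 3-fold dilutions, top 20 μM final, 0.2% DMSO, triplicate. ATP-based CellTiter-Glo luminescence; IC50 from 4-parameter fit of normalized curves.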

| SMILES | EC50 [1] [nM] | EC50 (Z-138 cell line) [nM] |
| --- | --- | --- |
| CC(=O)N1CCC(Nc2cc(C(=O)NC[C@H](O)CN3CCc4ncsc4C3)ncn2)CC1 [Compound 1-18, (S)-6-((1-acetylpiperidin-4-yl)amino)-N-(3-(6,7-dihydrothiazolo[5,4-c]pyridin-5(4H)-yl)-2-hydroxypropyl)pyrimidine-4-carboxamide] | > 1000 | > 5000 |
| CC(=O)N1CCC(Nc2cc(C(=O)NC[C@H](O)CN3CCc4ncsc4C3)ccn2)CC1 [Compound 1-19, (S)-2-((1-acetylpiperidin-4-yl)amino)-N-(3-(6,7-dihydrothiazolo[5,4-c]pyridin-5(4H)-yl)-2-hydroxypropyl)isonicotinamide] | > 1000 | > 5000 |
| Nc1nc2c(s1)CCN(C[C@@H](O)CNC(=O)c1cc(NC3COC3)ncn1)C2 [Compound 1-20, (S)—N-(3-(2-amino-6,7-dihydrothiazolo[4,5-c]pyridin-5(4H)-yl)-2-hydroxypropyl)-6-(oxetan-3-ylamino)pyrimidine-4-carboxamide] | > 1000 | > 5000 |
| Nc1nc2c(s1)CN(C[C@@H](O)CNC(=O)c1cc(NC3COC3)ncn1)CC2 [Compound 1-23] | > 1000 | > 5000 |
| CC(=O)N1CC(Nc2cc(C(=O)NC[C@H](O)CN3CCc4sc(C)nc4C3)ncn2)C1 [Compound 1-27] | > 1000 | > 5000 |
| CC(=O)N1CC(Nc2cc(C(=O)NC[C@H](O)CN3CCc4sc(N)nc4C3)ncn2)C1 [Compound 1-28] | > 1000 | > 5000 |
| CC(=O)N1CC(Nc2cc(C(=O)NC[C@H](O)CN3CCc4nc(N)sc4C3)ncn2)C1 [Compound 1-29] | > 1000 | > 5000 |
| CC(=O)N1CCC(Nc2cc(C(=O)NC[C@H](O)CN3CCc4scnc4C3)ccn2)CC1 [Compound 1-30] | 101 to 1000 | > 5000 |
| CC(=O)N1CCC(Nc2cc(C(=O)NC[C@H](O)CN3CCc4scnc4C3)ncn2)CC1 [Compound 1-32] | > 1000 | > 5000 |
| CC(=O)N1CCC(Nc2cc(C(=O)NC[C@H](O)CN3CCc4sc(C)nc4C3)ccn2)CC1 [Compound 1-33] | > 1000 | > 5000 |
| CC(=O)N1CCC(Nc2cc(C(=O)NC[C@H](O)CN3CCc4sc(N)nc4C3)ccn2)CC1 [Compound 1-34] | > 1000 | > 5000 |
| CC(=O)N1CCC(Nc2cc(C(=O)NC[C@H](O)CN3CCc4nc(N)sc4C3)ccn2)CC1 [Compound 1-35] | > 1000 | > 5000 |
| CC(=O)N1CCC(Nc2cc(C(=O)NC[C@H](O)CN3CCc4sc(C)nc4C3)ncn2)CC1 [Compound 1-36] | > 1000 | > 5000 |
| CC(=O)N1CCC(Nc2cc(C(=O)NC[C@H](O)CN3CCc4sc(N)nc4C3)ncn2)CC1 [Compound 1-37] | > 1000 | > 5000 |
| CC(=O)N1CCC(Nc2cc(C(=O)NC[C@H](O)CN3CCc4nc(N)sc4C3)ncn2)CC1 [Compound 1-38] | > 1000 | > 5000 |
| O=C(COc1cccc2cccnc12)NCC(O)CN1CCc2cccnc2C1 (centres unmarked) [Compound 2-5, N-[2-hydroxy-3-(5,6,7,8-tetrahydro-1,7-naphthyridin-7-yl)propyl]-2-(quinolin-8-yloxy)acetamide] | > 1000 | > 5000 |
| O=C(COc1cccc2cccnc12)NCC(O)CN1CCc2ncccc2C1 (centres unmarked) [Compound 2-6, N-[2-hydroxy-3-(5,6,7,8-tetrahydro-1,6-naphthyridin-6-yl)propyl]-2-(quinolin-8-yloxy)acetamide] | > 1000 | > 5000 |
| O=C(COc1cccc2cccnc12)NCC(O)CN1CCc2cnccc2C1 (centres unmarked) [Compound 2-7, N-[2-hydroxy-3-(1,2,3,4-tetrahydro-2,6-naphthyridin-2-yl)propyl]-2-(quinolin-8-yloxy)acetamide] | > 1000 | > 5000 |
| O=C(COc1cccc2cccnc12)NCC(O)CN1CCc2ccncc2C1 (centres unmarked) [Compound 2-8, N-[2-hydroxy-3-(1,2,3,4-tetrahydro-2,7-naphthyridin-2-yl)propyl]-2-(quinolin-8-yloxy)acetamide] | > 1000 | > 5000 |
